Laboratory results from the supplement of paper PMC10307832.

How the values were obtained:
Assay in all cases: relative viability (nuclei count vs DMSO), 5 days (fraction); higher = more cells survive
LCLC-103H = test system: LCLC-103H
Procedure, shortened: (§1)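 A single step with final 0.05% Triton X-100, 1% formaldehyde and 1 ug/ml Hoechst fixed the cells and stained nuclei 5 days after treatment. Lung cancer cell lines in 1536-well plates had been treated by pin tool the day after seeding with one drug alone or a fixed anchor-drug dose plus five library-drug doses (not always all listed) in √10 steps, and nuclei were counted on 4× images. Relative viability is the ratio of nuclei in treated wells to nuclei in vehicle wells, taken as the median of duplicate plates.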

EBC-1 = test system: EBC-1
Procedure, shortened: as §1

EKVX = test system: EKVX
Procedure, shortened: as §1

NCI-H1703 = test system: NCI-H1703
Procedure, shortened: as §1

A549 = test system: A549
Procedure, shortened: as §1

HCC-15 = test system: HCC-15
Procedure, shortened: as §1

NCI-H1299 = test system: NCI-H1299
Procedure, shortened: as §1

IA-LM = test system: IA-LM
Procedure, shortened: as §1

NCI-H1755 = test system: NCI-H1755
Procedure, shortened: as §1

NCI-H1395 = test system: NCI-H1395
Procedure, shortened: as §1

HCC-44 = test system: HCC-44
Procedure, shortened: as §1

UMC-11 = test system: UMC-11
Procedure, shortened: as §1

Calu-6 = test system: Calu-6
Procedure, shortened: as §1

With CC(=O)O[C@@]12CO[C@@H]1C[C@H](O)[C@@]1(C)C(=O)[C@H](O)C3=C(C)[C@@H](OC(=O)[C@H](O)[C@@H](NC(=O)OC(C)(C)C)c4ccccc4)C[C@@](O)([C@@H](OC(=O)c4ccccc4)[C@H]21)C3(C)C [Docetaxel] + C[C@]1(O)C[C@@H](c2nc(-c3ccc4ccc(-c5ccccc5)nc4c3)c3c(N)nccn32)C1 [Linsitinib] (partner 1 µM) the relative viability (LCLC-103H; first compound 0.0002 µM) was 0.934, the relative viability (LCLC-103H; first compound 0.000632 µM) was 1.18 and the relative viability (LCLC-103H; first compound 0.002 µM) was 0.919. It also gave a relative viability (LCLC-103H; first compound 0.006325 µM) of 0.479, a relative viability (LCLC-103H; first compound 0.02 µM) of 0.503 and a relative viability (EBC-1; first compound 0.0002 µM) of 0.776. It also gave a relative viability (EBC-1; first compound 0.000632 µM) of 0.872, a relative viability (EBC-1; first compound 0.002 µM) of 0.204 and a relative viability (EBC-1; first compound 0.006325 µM) of 0.271. It also gave a relative viability (EBC-1; first compound 0.02 µM) of 0.129, a relative viability (EKVX; first compound 0.0002 µM) of 0.899 and a relative viability (EKVX; first compound 0.000632 µM) of 0.804. It also gave a relative viability (EKVX; first compound 0.002 µM) of 0.427, a relative viability (EKVX; first compound 0.006325 µM) of 0.23 and a relative viability (EKVX; first compound 0.02 µM) of 0.115. For the same molecule, the relative viability (NCI-H1703; first compound 0.0002 µM) was 0.741, the relative viability (NCI-H1703; first compound 0.000632 µM) was 1.15 and the relative viability (NCI-H1703; first compound 0.002 µM) was 0.258. It also gave a relative viability (NCI-H1703; first compound 0.006325 µM) of 0.116, a relative viability (NCI-H1703; first compound 0.02 µM) of 0.101 and a relative viability (A549; first compound 0.0002 µM) of 0.578. For the same molecule, the relative viability (A549; first compound 0.000632 µM) was 0.372, the relative viability (A549; first compound 0.002 µM) was 0.0857 and the relative viability (A549; first compound 0.006325 µM) was 0.0667. It also gave a relative viability (A549; first compound 0.02 µM) of 0.036, a relative viability (HCC-15; first compound 0.0002 µM) of 0.765 and a relative viability (HCC-15; first compound 0.000632 µM) of 0.479. For the same molecule, the relative viability (HCC-15; first compound 0.002 µM) was 0.227, the relative viability (HCC-15; first compound 0.006325 µM) was 0.244 and the relative viability (HCC-15; first compound 0.02 µM) was 0.162. For the same molecule, the relative viability (NCI-H1299; first compound 0.0002 µM) was 0.905, the relative viability (NCI-H1299; first compound 0.000632 µM) was 0.98 and the relative viability (NCI-H1299; first compound 0.002 µM) was 0.787. The relative viability (NCI-H1299; first compound 0.006325 µM) was 0.432, the relative viability (NCI-H1299; first compound 0.02 µM) was 0.255 and the relative viability (IA-LM; first compound 0.0002 µM) was 0.351. The relative viability (IA-LM; first compound 0.000632 µM) was 0.449, the relative viability (IA-LM; first compound 0.002 µM) was 0.112 and the relative viability (IA-LM; first compound 0.006325 µM) was 0.0528. For the same molecule, the relative viability (IA-LM; first compound 0.02 µM) was 0.042, the relative viability (NCI-H1755; first compound 0.0002 µM) was 0.948 and the relative viability (NCI-H1755; first compound 0.000632 µM) was 0.971. For the same molecule, the relative viability (NCI-H1755; first compound 0.002 µM) was 0.48, the relative viability (NCI-H1755; first compound 0.006325 µM) was 0.384 and the relative viability (NCI-H1755; first compound 0.02 µM) was 0.302. It also gave a relative viability (NCI-H1395; first compound 0.0002 µM) of 1.05, a relative viability (NCI-H1395; first compound 0.000632 µM) of 1.19 and a relative viability (NCI-H1395; first compound 0.002 µM) of 0.787. It also gave a relative viability (NCI-H1395; first compound 0.006325 µM) of 0.431, a relative viability (NCI-H1395; first compound 0.02 µM) of 0.336 and a relative viability (HCC-44; first compound 0.0002 µM) of 0.608. The relative viability (HCC-44; first compound 0.000632 µM) was 0.747, the relative viability (HCC-44; first compound 0.002 µM) was 0.589 and the relative viability (HCC-44; first compound 0.006325 µM) was 0.201. For the same molecule, the relative viability (HCC-44; first compound 0.02 µM) was 0.106, the relative viability (UMC-11; first compound 0.0002 µM) was 0.982 and the relative viability (UMC-11; first compound 0.000632 µM) was 0.905. The relative viability (UMC-11; first compound 0.002 µM) was 0.278, the relative viability (UMC-11; first compound 0.006325 µM) was 0.237 and the relative viability (UMC-11; first compound 0.02 µM) was 0.183. The relative viability (Calu-6; first compound 0.0002 µM) was 0.819, the relative viability (Calu-6; first compound 0.000632 µM) was 0.968 and the relative viability (Calu-6; first compound 0.002 µM) was 0.332. The relative viability (Calu-6; first compound 0.006325 µM) was 0.142 and the relative viability (Calu-6; first compound 0.02 µM) was 0.0881.
